These compounds were tested against T1, PIK3CA_C242 (Homo sapiens, UniProt P42336) (assay: Proteomic TE50 (IA-DTB / TMT mass spectrometry) in Jurkat cell lysate). Settings: 1 hour at rt, 7-point dose response.
T1 construct: endogenous in cells; host or cells: Jurkat cell lysate
T1 sequence (P42336 whole entry): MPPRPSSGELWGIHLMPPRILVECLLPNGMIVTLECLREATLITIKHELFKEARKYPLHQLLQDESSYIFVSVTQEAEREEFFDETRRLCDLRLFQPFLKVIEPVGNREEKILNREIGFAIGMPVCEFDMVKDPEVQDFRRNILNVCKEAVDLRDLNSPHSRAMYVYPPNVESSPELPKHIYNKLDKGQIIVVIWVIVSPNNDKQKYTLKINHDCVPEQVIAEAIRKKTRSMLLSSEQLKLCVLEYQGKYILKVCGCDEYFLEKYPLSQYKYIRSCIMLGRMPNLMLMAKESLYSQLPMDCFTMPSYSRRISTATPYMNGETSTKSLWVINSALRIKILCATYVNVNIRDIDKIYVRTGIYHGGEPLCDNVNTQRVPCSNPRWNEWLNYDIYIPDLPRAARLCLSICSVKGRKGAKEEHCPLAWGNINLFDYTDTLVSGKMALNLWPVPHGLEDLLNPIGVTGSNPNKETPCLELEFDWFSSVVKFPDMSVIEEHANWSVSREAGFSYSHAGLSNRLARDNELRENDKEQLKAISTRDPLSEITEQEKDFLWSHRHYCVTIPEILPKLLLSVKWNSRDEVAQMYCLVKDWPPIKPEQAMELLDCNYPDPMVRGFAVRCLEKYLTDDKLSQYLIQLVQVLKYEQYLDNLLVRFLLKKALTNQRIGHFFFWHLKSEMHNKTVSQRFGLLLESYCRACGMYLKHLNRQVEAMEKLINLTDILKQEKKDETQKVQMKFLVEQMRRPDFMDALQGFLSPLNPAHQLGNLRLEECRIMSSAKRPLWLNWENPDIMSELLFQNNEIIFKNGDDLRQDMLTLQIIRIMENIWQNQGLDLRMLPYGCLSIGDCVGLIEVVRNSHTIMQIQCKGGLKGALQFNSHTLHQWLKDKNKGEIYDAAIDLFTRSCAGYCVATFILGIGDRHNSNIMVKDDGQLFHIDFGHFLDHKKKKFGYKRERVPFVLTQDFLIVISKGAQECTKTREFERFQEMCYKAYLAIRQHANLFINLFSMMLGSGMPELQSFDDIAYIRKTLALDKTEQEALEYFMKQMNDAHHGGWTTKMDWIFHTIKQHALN
T1 sequence (P27986 whole entry partner): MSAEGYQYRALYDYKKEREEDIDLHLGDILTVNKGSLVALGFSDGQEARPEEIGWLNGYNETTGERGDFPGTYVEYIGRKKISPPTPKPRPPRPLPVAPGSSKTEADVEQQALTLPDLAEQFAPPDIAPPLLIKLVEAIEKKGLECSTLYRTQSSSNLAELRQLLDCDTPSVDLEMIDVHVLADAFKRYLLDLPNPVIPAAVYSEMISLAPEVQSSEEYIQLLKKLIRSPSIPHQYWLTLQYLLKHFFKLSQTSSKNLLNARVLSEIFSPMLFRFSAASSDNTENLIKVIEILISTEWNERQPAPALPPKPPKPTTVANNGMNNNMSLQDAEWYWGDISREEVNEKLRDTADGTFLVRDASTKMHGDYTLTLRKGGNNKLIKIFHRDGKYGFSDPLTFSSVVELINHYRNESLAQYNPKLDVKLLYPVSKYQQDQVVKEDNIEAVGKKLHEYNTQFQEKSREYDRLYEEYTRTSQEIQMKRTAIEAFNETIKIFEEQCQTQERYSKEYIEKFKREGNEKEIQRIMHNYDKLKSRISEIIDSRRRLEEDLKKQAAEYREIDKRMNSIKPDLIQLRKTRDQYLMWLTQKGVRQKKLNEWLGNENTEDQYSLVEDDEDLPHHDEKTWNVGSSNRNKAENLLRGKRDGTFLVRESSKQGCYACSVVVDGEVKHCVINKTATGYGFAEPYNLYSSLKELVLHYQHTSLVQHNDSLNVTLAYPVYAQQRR
Assay type: binding
Experimental: Example 4. Proteomic TE50 In vitro TE50 values for PIK3CA_C242 were obtained by treating 500 μg of cell lysate generated from Jurkat cells with DMSO or compound for 1 hour at rt followed by the addition of 200 μM desthiobiotin polyethyleneoxide iodoacetamide (IA-DTB) in DMSO for one hour at rt. Compounds were serially diluted 1:5 for a total of 7 points in order to generate dose response curves. Samples were then precipitated by the addition of 8× ice cold acetone and incubated at -80° C. for two hours. Protein was then pelleted by centrifugation (4,200 RPM, 45 min, 4° C.). The pelleted material was resuspended in 9M urea, 50 mM ammonium bicarbonate and proteins were reduced and alkylated by the addition of DTT and iodoacetamide (10 and 30 mM, respectively). Following reduction and alkylation, samples were exchanged into 2M urea (Zeba spin desalting plates, Thermo Fisher) and digested with Trypsin. IA-DTB labeled peptides were isolated with streptavidin agarose resin. Enriched peptides were eluted by the addition of 50% acetonitrile (ACN) 0.1% formic acid (FA) and dried in a SpeedVac vacuum concentrator. […] Reactions were quenched by the addition of 6.5 μL of 5% hydroxylamine. Samples were then combined and desalted on a Evolute express ABN plate (Biotage, 600-0010-PX01). Targeted TMT measurements were collected using an Orbitrap Lumos Tribrid Mass Spectrometer (Thermo Scientific) coupled to an UltiMate 3000 Series Rapid Separation LC system and autosampler (Thermo Scientific Dionex). Peptides were eluted onto a custom C18 capillary analytical column (75-μm inner diameter fused silica, packed with Acclaim PepMap C18 resin; Thermo Scientific) using an Acclaim PepMap 100 (Thermo 164535) loading column, and separated at a flow rate of […]. Data were acquired using a specific MS3-based TMT method targeting the peptide containing […], +2 charge state) where MS2 peptide fragmentation is triggered upon detection of the peptide precursor ion. Subsequent MS3 analysis was then performed using pre-selected peptide fragment ions that were isolated for fragmentation using synchronous precursor selection. RAW files were converted to MZXML format and searched with the SEQUEST algorithm using the […] software package. TMT quantitation was performed with a filter requiring at least ten summed signal-to-noise (S/N) for control channels. TE50 values were calculated from 7-point dose response curves created using the reporter ion S/N for each channel.
In the case of `C[C@H](/C=C\S(C)(=O)=O)NC(=O)C1(F)CCN(C(=O)[C@@H]2CN(C(=O)OC(C)(C)C)C[C@@H]2c2ccccc2Cl)CC1` (racemic) [Compound 158, tert-butyl(3RS,4RS)-3-(2-chlorophenyl)-4-(4-fluoro-4-(((R,Z)-4-(methylsulfonyl)but-3-en-2-yl)carbamoyl)piperidine-1-carbonyl)pyrrolidine-1-carboxylate], the IC50 is reported as 895 nM. In the case of `C[C@@H](/C=C\S(C)(=O)=O)NC(=O)C1(F)CCN(S(=O)(=O)c2ccc(Cl)cc2-c2ccccc2)CC1` [Compound 2, (S,Z)-1-((5-chloro-[1,1′-biphenyl]-2-yl)sulfonyl)-4-fluoro-N-(4-(methylsulfonyl)but-3-en-2-yl)piperidine-4-carboxamide], the IC50 is reported as 88.5 nM. `COc1ccc(S(=O)(=O)N2CCC(F)(C(=O)N[C@@H](C)/C=C\S(C)(=O)=O)CC2)c(-c2ccccc2Cl)c1` [Compound 11, (S,Z)-1-((2′-chloro-5-methoxy-[1,1′-biphenyl]-2-yl)sulfonyl)-4-fluoro-N-(4-(methylsulfonyl)but-3-en-2-yl)piperidine-4-carboxamide] showed an IC50 of 70.1 nM. `COc1ccc(S(=O)(=O)N2CCC(F)(C(=O)N[C@@H](C)/C=C\S(C)(=O)=O)CC2)c(-c2ccccc2C)c1` [Compound 12, (S,Z)-4-fluoro-1-((5-methoxy-2′-methyl-[1,1′-biphenyl]-2-yl)sulfonyl)-N-(4-(methylsulfonyl)but-3-en-2-yl)piperidine-4-carboxamide] showed an IC50 of 66 nM. `COc1ccc(S(=O)(=O)N2CCC(F)(C(=O)N[C@H](C)/C=C\S(C)(=O)=O)CC2)c(-c2cc(F)ccc2Cl)c1` [Compound 28, (R,Z)-1-((2′-chloro-5′-fluoro-5-methoxy-[1,1′-biphenyl]-2-yl)sulfonyl)-4-fluoro-N-(4-(methylsulfonyl)but-3-en-2-yl)piperidine-4-carboxamide] showed an IC50 of 630 nM. `COc1cccc(-c2cc(Cl)ccc2S(=O)(=O)N2CCC(F)(C(=O)NC/C=C/S(C)(=O)=O)CC2)c1` [Compound 36, (E)-1-((5-chloro-3′-methoxy-[1,1′-biphenyl]-2-yl)sulfonyl)-4-fluoro-N-(3-(methylsulfonyl)allyl)piperidine-4-carboxamide] was tested, and the IC50 was 750 nM. With `CS(=O)(=O)/C=C/CNC(=O)C1(F)CCN(S(=O)(=O)c2ccc(Cl)cc2-c2ccccc2)CC1` [Compound 37, (E)-1-((5-chloro-[1,1′-biphenyl]-2-yl)sulfonyl)-4-fluoro-N-(3-(methylsulfonyl)allyl)piperidine-4-carboxamide] the IC50 was 297 nM. In the case of `COc1ccc(S(=O)(=O)N2CCC(F)(C(=O)NC/C=C/S(C)(=O)=O)CC2)c(-c2ccccc2)c1` [Compound 38, (E)-4-fluoro-1-((5-methoxy-[1,1′-biphenyl]-2-yl)sulfonyl)-N-(3-(methylsulfonyl)allyl)piperidine-4-carboxamide], the IC50 is reported as 644 nM. In the case of `COc1cccc(-c2cc(OC)ccc2S(=O)(=O)N2CCC(F)(C(=O)NC/C=C/S(C)(=O)=O)CC2)c1` [Compound 39, (E)-1-((3′,5-dimethoxy-[1,1′-biphenyl]-2-yl)sulfonyl)-4-fluoro-N-(3-(methylsulfonyl)allyl)piperidine-4-carboxamide], the IC50 is reported as 716 nM. Work on `CS(=O)(=O)/C=C/CNC(=O)C1(F)CCN(S(=O)(=O)c2ccc(Cl)cc2-c2ccccc2Cl)CC1` [Compound 40, (E)-1-((2′,5-dichloro-[1,1′-biphenyl]-2-yl)sulfonyl)-4-fluoro-N-(3-(methylsulfonyl)allyl)piperidine-4-carboxamide] yielded an IC50 of 210 nM. Work on `COc1ccc(S(=O)(=O)N2CCC(F)(C(=O)NC/C=C/S(C)(=O)=O)CC2)c(-c2cccc(Cl)c2)c1` [Compound 41, (E)-1-((3′-chloro-5-methoxy-[1,1′-biphenyl]-2-yl)sulfonyl)-4-fluoro-N-(3-(methylsulfonyl)allyl)piperidine-4-carboxamide] yielded an IC50 of 290 nM. Work on `COc1cccc(-c2cc(C)ccc2S(=O)(=O)N2CCC(F)(C(=O)NC/C=C/S(C)(=O)=O)CC2)c1` [Compound 42, (E)-4-fluoro-1-((3′-methoxy-5-methyl-[1,1′-biphenyl]-2-yl)sulfonyl)-N-(3-(methylsulfonyl)allyl)piperidine-4-carboxamide] yielded an IC50 of 624 nM. `COc1ccc(S(=O)(=O)N2CCC(F)(C(=O)NC/C=C/S(C)(=O)=O)CC2)c(-c2ccccc2Cl)c1` [Compound 43, (E)-1-((2′-chloro-5-methoxy-[1,1′-biphenyl]-2-yl)sulfonyl)-4-fluoro-N-(3-(methylsulfonyl)allyl)piperidine-4-carboxamide] was tested, and the IC50 was 264 nM. `COc1ccc(S(=O)(=O)N2CCC(F)(C(=O)NC/C=C/S(C)(=O)=O)CC2)c(-c2ccccc2C)c1` [Compound 44, (E)-4-fluoro-1-((5-methoxy-2′-methyl-[1,1′-biphenyl]-2-yl)sulfonyl)-N-(3-(methylsulfonyl)allyl)piperidine-4-carboxamide] gave an IC50 of 313 nM. Compound `CS(=O)(=O)/C=C/CNC(=O)C1(F)CCN(S(=O)(=O)c2ccc(Cl)cc2-c2cccc(Cl)c2)CC1` [Compound 45, (E)-1-((3′,5-dichloro-[1,1′-biphenyl]-2-yl)sulfonyl)-4-fluoro-N-(3-(methylsulfonyl)allyl)piperidine-4-carboxamide] has an IC50 of 420 nM.

What follows are compounds tested against T2, PIK3CA (Homo sapiens, UniProt P42336) (assay: In vitro ELISA target engagement assay for PIK3CA in Jurkat cellular lysate (competition with PIK3CA Biotin Probe)). Settings: 1 hour at rt, then 500 nM PIK3CA Biotin Probe, read-out: Elisa Target Engagement Assay (TE50).
T2 construct: endogenous in cells; host or cells: Jurkat cell lysate
T2 sequence (P42336 whole entry): as the sequence (P42336 whole entry) above
T2 sequence (P27986 whole entry partner): as the sequence (P27986 whole entry partner) above
Assay type: binding
Summary of the method: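 Jurkat lysate from sonicated frozen cells was preincubated 1 h at rt with serially diluted compound up to 200 μM, then labelled 1 h at rt with PIK3CA biotin probe at 500 nM final. Probe-bound PIK3CA was captured on antibody-coated plates and detected with Neutravidin-HRP luminescence; TE50 derived from the dose response.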
`C[C@@H]1C[C@](F)(C(=O)NC/C=C\C(=O)N2CC(F)(F)C2)CCN1S(=O)(=O)c1cnc(C(F)(F)F)cc1-c1ccccc1Cl` [Compound 289, (2R,4S)-1-((4-(2-chlorophenyl)-6-(trifluoromethyl)pyridin-3-yl)sulfonyl)-N-((Z)-4-(3,3-difluoroazetidin-1-yl)-4-oxobut-2-en-1-yl)-4-fluoro-2-methylpiperidine-4-carboxamide] gave an IC50 of 460 nM. Work on `C[C@@H]1C[C@](F)(C(=O)NC/C=C\C(=O)N2CC(F)(F)C2)CCN1S(=O)(=O)c1ccc(C(F)(F)F)cc1-c1ccccc1Cl` [Compound 290, (2R,4S)-1-((2′-chloro-5-(trifluoromethyl)-[1,1′-biphenyl]-2-yl)sulfonyl)-N-((Z)-4-(3,3-difluoroazetidin-1-yl)-4-oxobut-2-en-1-yl)-4-fluoro-2-methylpiperidine-4-carboxamide] yielded an IC50 of 1000 nM. `C[C@@H]1C[C@](F)(C(=O)NC/C=C\C(=O)N2CC(F)(F)C2)CCN1S(=O)(=O)c1ccc(Br)cc1-c1ccccc1Cl` [Compound 291, (2R,4S)-1-((5-bromo-2′-chloro-[1,1′-biphenyl]-2-yl)sulfonyl)-N-((Z)-4-(3,3-difluoroazetidin-1-yl)-4-oxobut-2-en-1-yl)-4-fluoro-2-methylpiperidine-4-carboxamide] gave an IC50 of 320 nM. `C[C@@H]1C[C@](F)(C(=O)NC/C=C\C(=O)N2CC(F)(F)C2)CCN1S(=O)(=O)c1ccc(C#N)cc1-c1ccccc1Cl` [Compound 292, (2R,4S)-1-((2′-chloro-5-cyano-[1,1′-biphenyl]-2-yl)sulfonyl)-N-((Z)-4-(3,3-difluoroazetidin-1-yl)-4-oxobut-2-en-1-yl)-4-fluoro-2-methylpiperidine-4-carboxamide] showed an IC50 of 160 nM. Compound `COc1ccc(C(=O)N2CCC[C@](F)(C(=O)N[C@H](C)/C=C\S(C)(=O)=O)CC2)c(-c2ccccc2Cl)c1` [Compound 295, (R)-1-(2′-chloro-5-methoxy-[1,1′-biphenyl]-2-carbonyl)-4-fluoro-N-((R,Z)-4-(methylsulfonyl)but-3-en-2-yl)azepane-4-carboxamide] has an IC50 of 350 nM. `C[C@H](/C=C\S(C)(=O)=O)NC(=O)C1(F)CCN(C(=O)[C@H]2CN(C3CC3)C[C@H]2c2ccccc2Cl)CC1` [Compound 304, 1-((3R,4R)-4-(2-chlorophenyl)-1-cyclopropylpyrrolidine-3-carbonyl)-4-fluoro-N-((R,Z)-4-(methylsulfonyl)but-3-en-2-yl)piperidine-4-carboxamide] showed an IC50 of 740 nM. `C[C@H](/C=C\S(C)(=O)=O)NC(=O)[C@]1(F)CCCN(S(=O)(=O)c2ccc(C(F)(F)F)cc2-c2ccccc2Cl)CC1` [Compound 311, (S)-1-((2′-chloro-5-(trifluoromethyl)-[1,1′-biphenyl]-2-yl)sulfonyl)-4-fluoro-N-((R,Z)-4-(methylsulfonyl)but-3-en-2-yl)azepane-4-carboxamide] gave an IC50 of 820 nM. `COc1ccc(S(=O)(=O)N2CCC[C@@](F)(C(=O)N[C@H](C)/C=C\S(C)(=O)=O)CC2)c(-c2ccccc2Cl)c1` [Compound 313, (S)-1-((2′-chloro-5-methoxy-[1,1′-biphenyl]-2-yl)sulfonyl)-4-fluoro-N-((R,Z)-4-(methylsulfonyl)but-3-en-2-yl)azepane-4-carboxamide] showed an IC50 of 530 nM.
